Target: T1, modified thermophilic polymerase (Therminator 3, from New England BioLabs) (Thermococcus sp., UniProt Q56366, D141A/E143A/L408S/P410V/Y409A)
T1 construct: purchased New England BioLabs
Assay: Incorporation of 3′-terminated nucleotides by a modified thermophilic polymerase
Format: biochemical, Thermococcus sp. 9 degrees N-7
Conditions: pH 8.5, nucleotides at 200 nM, 4 mM Mg, 55° C.; polymerase pre-bound to primed DNA template
Excerpt: Another important property of a nucleotide with a reversible terminator (e.g., 3′ cleavable moiety as described herein) is the ability to be rapidly incorporated by a DNA polymerase. Naturally occurring DNA polymerases are typically not capable of incorporating nucleotides modified with reversible terminator (e.g., 3′ cleavable moiety as described herein) at the 3′ position on the ribose of the nucleotide. As known in the art, a number of thermophilic polymerases have been engineered to enable the incorporation of nucleotides modified with 3′ terminators. […] The reaction was carried out in a buffered solution at pH 8.5, with nucleotides at 200 nM concentration, 4 mM Mg, at a temperature of 55° C. The polymerase was pre-bound to the primed DNA template. All three terminated nucleotides are efficiently incorporated by the modified DNA polymerase. The polymerase can be further modified for desired properties such as incorporation rate and accuracy.

T1 sequence (Q56366 whole entry D141A/E143A/L408S/Y409A/P410V): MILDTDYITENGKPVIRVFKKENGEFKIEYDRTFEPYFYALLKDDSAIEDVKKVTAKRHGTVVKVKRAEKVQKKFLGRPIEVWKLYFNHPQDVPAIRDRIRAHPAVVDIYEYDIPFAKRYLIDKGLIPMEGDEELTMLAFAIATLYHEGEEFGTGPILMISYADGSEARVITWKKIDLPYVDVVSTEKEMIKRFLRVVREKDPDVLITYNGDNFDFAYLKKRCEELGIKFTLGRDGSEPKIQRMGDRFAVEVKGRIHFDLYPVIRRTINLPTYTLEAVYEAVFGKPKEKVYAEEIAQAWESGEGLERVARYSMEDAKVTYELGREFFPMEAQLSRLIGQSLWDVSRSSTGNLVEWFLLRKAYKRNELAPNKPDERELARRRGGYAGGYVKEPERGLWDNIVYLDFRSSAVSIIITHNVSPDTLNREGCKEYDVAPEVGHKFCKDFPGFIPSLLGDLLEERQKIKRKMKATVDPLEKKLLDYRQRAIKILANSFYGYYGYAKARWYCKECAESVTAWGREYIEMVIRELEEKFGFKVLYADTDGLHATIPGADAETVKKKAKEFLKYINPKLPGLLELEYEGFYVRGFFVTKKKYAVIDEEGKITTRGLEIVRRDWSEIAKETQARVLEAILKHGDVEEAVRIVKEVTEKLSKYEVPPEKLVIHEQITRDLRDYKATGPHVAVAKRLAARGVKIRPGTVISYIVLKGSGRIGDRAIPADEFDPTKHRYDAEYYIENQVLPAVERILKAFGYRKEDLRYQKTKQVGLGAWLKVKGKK

How did the Incorporation half-time turn out when CSSCOC1CC(n2cc(C)c(=O)[nH]c2=O)OC1COP(=O)(O)OP(=O)(O)OP(=O)(O)O (stereo not shown) [RT #1, 3′O—CH2—S—S—CH3] was run?
The Incorporation half-time was 14 ± 3 s.

From patent US10738072B1, “Nucleotide analogues” (Singular Genomics Systems, Inc., priority 2018, dated 2020)
